IC50 data for five compounds are collected here from ChEMBL document CHEMBL1122369, “Autoxidation of the antitumor drug 9-hydroxyellipticine and its derivatives” (1983).

Each structure is given as a SMILES string.

This test has as its system L1210. Description: Growth inhibitory activity against L1210 lymphocytic leukemia cells. The class given is functional. Particulars: Mus musculus, read-out: ID50 (the source's name).
On to `Cc1c2ccncc2c(C)c2c1[nH]c1ccc(O)cc12`, for which the IC50 is 15 nM.

For `Cc1c2cc[n+](C)cc2c(C)c2c1[nH]c1ccc(O)cc12` [ELLIPTINIUM], the IC50 was 50 nM. As for `Cc1c2ccncc2c(C)c2c1[nH]c1ccccc12` [ELLIPTECINE], the IC50 was 990 nM. `Cc1c2ccncc2c(C)c2c1[nH]c1c(O)cccc12`: the IC50 is 5440 nM. The value for `Cc1c2c[n+](C)ccc2c(C)c2c1c1cc(O)ccc1n2C` was 41 nM.
